According to ChEMBL document CHEMBL3108718, “Replacement of the Disulfide Bridge in a KLK3-Stimulating Peptide Using Orthogonally Protected Building Blocks” (ACS Med Chem Lett, 2014):
Bridge positions count the residues as written; N and C are the ends. Square brackets hold non-standard residues; d marks the D form. Peptide text beside a SMILES is read from it. Asu = N[C@@H](CCCCCC(=O)O)C(=O)O; AllylGly = C=CC[C@H](N)C(=O)O; GABA = NCCCC(=O)O

target: T1, Prostate-specific antigen (Homo sapiens) (UniProt P07288); assay: Stimulation of KLK3 (unknown origin) using S-2586 as substrate at 14 uM after 30 mins by spectrophotometric assay relative to control
T1 sequence (whole entry): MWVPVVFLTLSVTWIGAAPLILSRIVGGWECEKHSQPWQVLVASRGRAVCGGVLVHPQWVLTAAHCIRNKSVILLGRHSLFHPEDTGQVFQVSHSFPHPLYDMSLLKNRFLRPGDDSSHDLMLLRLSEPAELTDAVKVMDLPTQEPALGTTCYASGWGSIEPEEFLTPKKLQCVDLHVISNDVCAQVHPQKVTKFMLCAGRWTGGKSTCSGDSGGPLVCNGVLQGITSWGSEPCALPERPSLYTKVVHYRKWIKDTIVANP

| SMILES | Activity |
| --- | --- |
| CC(C)C[C@@H]1NC(=O)[C@H](Cc2ccc(O)cc2)NC(=O)[C@H](CC(=O)O)NC(=O)[C@H](Cc2ccc(O)cc2)NC(=O)[C@H](CC(N)=O)NC(=O)[C@H](Cc2cnc[nH]2)NC(=O)[C@H](C)NC(=O)[C@H](Cc2ccccc2)NC(=O)[C@H](C(C)C)NC(=O)[C@@H](N)CCCC[C@@H](C(=O)O)NC(=O)[C@H](C(C)C)NC1=O | 250% |
| CC(C)C[C@@H]1NC(=O)[C@H](Cc2ccc(O)cc2)NC(=O)[C@H](CC(=O)O)NC(=O)[C@H](Cc2ccc(O)cc2)NC(=O)[C@H](CC(N)=O)NC(=O)[C@H](Cc2cnc[nH]2)NC(=O)[C@H](C)NC(=O)[C@H](Cc2ccccc2)NC(=O)[C@H](C(C)C)NC(=O)[C@@H](N)CSSC[C@@H](C(N)=O)NC(=O)[C@H](C(C)C)NC1=O (H-CVFAHNYDYLVC-NH2; disulfide 1-12) | 360% |

Second part, the compound after the results:

| Activity | SMILES |
| --- | --- |
| 160% | CC(C)C[C@@H]1NC(=O)[C@H](Cc2ccc(O)cc2)NC(=O)[C@H](CC(=O)O)NC(=O)[C@H](Cc2ccc(O)cc2)NC(=O)[C@H](CC(N)=O)NC(=O)[C@H](Cc2cnc[nH]2)NC(=O)[C@H](C)NC(=O)[C@H](Cc2ccccc2)NC(=O)[C@H](C(C)C)NC(=O)CC/C=C/C[C@@H](C(=O)O)NC(=O)[C@H](C(C)C)NC1=O |
| 160% | CC(C)C[C@@H]1NC(=O)[C@H](Cc2ccc(O)cc2)NC(=O)[C@H](CC(=O)O)NC(=O)[C@H](Cc2ccc(O)cc2)NC(=O)[C@H](CC(N)=O)NC(=O)[C@H](Cc2cnc[nH]2)NC(=O)[C@H](C)NC(=O)[C@H](Cc2ccccc2)NC(=O)[C@H](C(C)C)NC(=O)[C@@H](N)C/C=C/C[C@@H](C(=O)O)NC(=O)[C@H](C(C)C)NC1=O (H-[AllylGly]VFAHNYDYLV[AllylGly]-OH; staple (E) 1-12) |
| 170% | CC(C)C[C@@H]1NC(=O)[C@H](Cc2ccc(O)cc2)NC(=O)[C@H](CC(=O)O)NC(=O)[C@H](Cc2ccc(O)cc2)NC(=O)[C@H](CC(N)=O)NC(=O)[C@H](Cc2cnc[nH]2)NC(=O)[C@H](C)NC(=O)[C@H](Cc2ccccc2)NC(=O)[C@H](C(C)C)NC(=O)CCCCC[C@@H](C(=O)O)NC(=O)[C@H](C(C)C)NC1=O (VFAHNYDYLV[Asu]-OH; lactam N-11) |

target: T1, Prostate-specific antigen (Homo sapiens); assay: Stimulation of KLK3 (unknown origin) relative to control

| Activity | SMILES |
| --- | --- |
| 250% | CC(C)C[C@@H]1NC(=O)[C@H](Cc2ccc(O)cc2)NC(=O)[C@H](CC(=O)O)NC(=O)[C@H](Cc2ccc(O)cc2)NC(=O)[C@H](CC(N)=O)NC(=O)[C@H](Cc2cnc[nH]2)NC(=O)[C@H](C)NC(=O)[C@H](Cc2ccccc2)NC(=O)[C@H](C(C)C)NC(=O)CCCNC(=O)[C@H](CC(=O)O)NC(=O)[C@H](C(C)C)NC1=O (cyclo(AHNYDYLVD[GABA]VF)) |
